# Legend:
# Hepa1-6 cells = assay: Transwell migration and Matrigel invasion assay; format: cell-based, mouse
# Procedure: Cell migration and invasion assay […]
# Cell migration was monitored during the overnight culture of the cells. Hepa1-6/luc cells (5×10^5cells/well) were placed in the upper chamber of an 8µm transwell system and incubated in serum-free DMEM, while various treated media with 20% FBS were added to the lower chamber of 24-well plates. After incubation for 48 h, the transmembrane cells were washed, fixed with 4% paraformaldehyde, stained with crystal violet, and observed under a microscope (Axiovert 200, Zeiss, Germany). All the experiments were performed thrice. The Transwell invasion assay was performed using a similar procedure. Hepa1-6/luc cells (1×10^6cells/well) were seeded in the upper chamber of an 8µm transwell system coated with Matrigel (356231, Corning, New York, USA) and incubated in serum-free DMEM. The remaining operations were performed according to the steps of the migration assay. All the experiments were performed thrice.
# Matrigel tube formation assay
# Murine C166 endothelial cells (3×10^4cells/well) were placed on 96-well plates coated with Matrigel (356231, Corning, New York, USA) and incubated with various treatments. […]
# In vitro permeability assays and trans-endothelial invasion assays […]
# [1] = Zeta potential before and after incubation with NE; format: physicochemical; details: 20 µM, mean ± s.d., n = 3
# Procedure: Submitted to Advanced Science temperature. Following the incubation, 10 µL of the solution was added to a copper mesh at 0 and 24 h. Filter paper was used to remove any extra droplets after an overnight stay. The samples were then stained for five minutes with uranyl acetate and then rinsed for one minute with water (10 µL). Finally, dried samples were observed by TEM (Talos 120C, Thermo Fisher Scientific, USA). DLS (Zetasizer Nano ZS, UK) was used to assess the solution for hydrodynamic size and zeta potential at 0 and 24 h following the incubation. Then, the nanofiber structure at 0 h and 24 h after incubation of FTP-NPs was examined with Circular Dichroism (CD) Spectra (Chirascan, UM, Britain). In addition, the variation of fluorescence emission spectra of PpIX by […]
# transformation of FTP-NPs.
# Pyrene molecules were employed as an indicator to determine the critical aggregation concentration (CAC) of nanoparticles by comparing the fluorescence of their third and first emissive peaks. […] The fluorescence spectra of pyrene (excitation, 335 nm) in different NPs dilutions were recorded. The fluorescence intensity ratio (I3/I1) of the third and first emissive peaks was measured for CAC calculation. […]
# Figure S3. […] (a, b) Changes in fluorescence and UV–vis absorption of FTP-NPs following the gradual addition of water (from 0 to 99.5%) to a solution of NPs in Dimethyl Sulfoxide (DMSO). […]
# activated neutrophils = assay: CCK-8 cytotoxicity; format: cell-based, mouse; details: CCK-8, 24 h, different dosages
# Procedure: The supernatant was discarded, and the red blood cells were lysed with RBC lysate. The neutrophils were then washed with PBS again, and the supernatant was discarded. The cells were resuspended in culture medium and used for further experiments. […]
# Briefly, FTP-NPs were prepared by self-assembly of peptidic nanomaterials and adjusted to various concentrations (0, 50, 100, 200, 400, 800, 1000 μg/mL). […]
# 10 minutes to remove unbound particles, and the supernatant was collected. […]
# In vitro cytotoxicity assay
# The CCK-8 assay was used to assess the cell viability of Hepa1-6/luc, resting neutrophils, and activated neutrophils. Following the seeding of 1*10^4 cells per well on a 96-well plate, the cells were subjected to different dosages of FTP-NPs and NFTP-NPs (medium: DMSO = 99:1 v/v). After 24 hours, the cells were incubated for two hours with 10 µL of CCK-8 solution. Finally, a microplate reader (Tecan Infinite M200, Switzerland) was used to measure cell viability based on the absorbance values.
# Targeting the capability of NEBP
# To evaluate the targeting capability of NE-binding peptide (NEBP), the harvested resting neutrophils and […]
substance,measurement,setting,value
PpIX-GFFVLK-EAIPMSIPPEVK [FTP-NPs],number of invasive cells,"Hepa1-6 cells; Matrigel-coated transwell, versus Control and NFTP-NPs groups",significantly lower
same,number of migrating cells,"Hepa1-6 cells; transwell, 48 h, versus other control groups",significantly reduced
same,"zeta potential, initial NPs",[1]; before fibrillar transformation,21.7±0.6 mV
same,zeta potential after fibrillar transformation,[1]; with NE for 24 h,9.2±0.2 mV
same,survival rate,activated neutrophils,over 95%
